Laboratory results published in patent publication US8853406B2, “Substituted phenylenediamines as inhibitors of the interaction between MDM2 and P53” (Janssen Pharmaceutica NV, priority 2007, dated 2014).

Tested on: human U87 gliomoblastoma xenograft tumors
Assay: In vivo anti tumour effects, U87 glioblastoma xenograft
Design: species or system NMRI Nude mice
Details: for tumor growth of pre-established U87 xenograft: 21 days; for in vivo antitumoral activity: s.c. U87 xenograft in NMRI Nude mice
Procedure: FIG. 7 is the Antitumoral effect of compound No. 1 in U87 Glioblastoma Xenograft Tumors in NMRI Nude mice: • On day 0, male NMRI Nude mice were inoculated with a single subcutaneous injection into the inguinal region with human U87 Glioblastoma tumor cells ([…]). On day 8, mice were treated p.o. with vehicle (control group; 10% hydroxypropyl-β-cyclodextrin (□)) or vehicle containing Co No. 1 at either 2.5 mg/kg (▴), 5 mg/kg (▾), 10 mg/kg (♦) or 20 mg/kg (●) for 21 days (QD×21). Subcutaneous tumor volumes and body weights were measured twice weekly, until end of study and results represented as relative tumor volumes (mm^3). Dosing period indicated under x-axis.
The minimal efficacious dose (according to the NCI standard) in this model was 5 mg/kg.
Immuno-deficient (athymic) male NMRI Nude (Nu/Nu) mice (20-25 g were obtained from Janvier, France) were used for theses studies. Initial weight was approximately […]. All animals were maintained under SPF “full barrier” conditions with free access to food and water. Mice were group housed under a 12-h light:dark cycle (lights on at 06:00 h) at a temperature of 19 to 22° C. and 35 to 40% humidity in Techniplast type-3 IVC cages. Mice were fed a standard Laboratory chow. All experiments were carried out in accordance with the European Communities Council Directives (86/609/EEC) and were approved by the local ethical committee. For an established tumor xenograft model (tumor volume ˜200 mm^3), mice were randomized according to tumor volumes, with 10 to 14 mice per treatment group.
The human U87 glioma tumor cell line was derived from a patient. Cells were cultured at 37° C. in a humidified atmosphere (5% CO2, 95% air), in DMEM medium supplemented with 2 mM L-glutamine, 2.0 mM sodium pyruvate, 25 units/ml penicillin/25 μg/ml streptomycin and 10% fetal bovine serum. Cells were maintained as cell monolayer cultures, being passaged twice weekly at 3×10^6 cells per T175 flask using the following procedure. Briefly cells were washed with PBS (without Mg^2+, Ca^2+), before addition of trypsin-EDTA to the culture flasks. After detachment of cells the trypsin-EDTA was inactivated by addition of complete medium. Cell suspension was then transferred to 50 ml Falcon tube and centrifuged for 3 min at 1200 rpm. Medium was aspirated, with the cells being re-suspended in an appropriate volume of complete medium. The cells were counted in a haemocytometer and their viability was assessed by 0.25% trypan blue exclusion. An appropriate volume of cell suspension was then added to either a new T175 culture flask(s) or roller bottle containing fresh medium. For large scale-up growth of U87 tumor cells, an appropriate number of roller bottles were seeded with 0.5 to 1×10^7 cells 1 week prior to inoculation of mice. The medium was changed twice during this period, with the last change being the day prior to cell injection. Cells were collected as described above, with the exception that after centrifugation, the cells were re-suspended in cold (4° C.) serum-free medium. Mice were injected in the inguinal region with 1×10^7 cells total in a 200 μl volume.
Human U87 glioma cells were injected directly into the inguinal region of the male NMRI Nude mice (1×10^7 cells/200 μl/animal) on day 0 (D0). […] Tumor size and body weights were measured twice weekly, with mice monitored daily for clinical signs of toxicity for the duration of the treatment. […]

Compound | tumor growth of pre-established U87 xenograft (10 mg/kg oral) | tumor growth of pre-established U87 xenograft (20 mg/kg oral) | minimal efficacious dose (according to the NCI standard) (U87 xenograft, oral QD x 21) | in vivo antitumoral activity (listed as Co No. 1) | in vivo antitumoral activity
Cc1cc(Nc2ccnc3c2CCC3O)ccc1NCCc1c[nH]c2c(C)cccc12 (single isomer, unassigned) [Compound No. 1] | complete tumor growth inhibition and regression | complete tumor growth inhibition and regression | 5 mg/kg | potent inhibition in growth | 
Cc1cc(Nc2ccnc3c2CCC3O)ccc1NCCc1c[nH]c2c(C)cccc12 (single isomer, unassigned) [Compound No. 2] |  |  |  |  | showed in vivo antitumoral activity
